Laboratory results as given in patent US20090325913A1, “Treatment of pain using satraplatin” (priority 2006, published 2009).

Key:
[1] = tested on: prostate cancer cell lines PC-3, DU 145 and LNCaP; details: cited from earlier work
[2] = tested on: patients with metastatic prostatic carcinoma; details: single agent; cited from earlier work
[3] = tested on: mismatch repair-proficient and mismatch repair-deficient cell lines; details: cited from earlier work
[4] = tested on: human tumor cell lines with different sensitivities to cisplatin; details: at equimolar basis; cited from earlier work
human lung cancer cells = details: cited from earlier work
[5] = tested on: CYP enzymes (cytochrome P450 system); experiment: Inhibition of CYP enzymes; format: in vitro ADME
From the text: This may result in increased toxicity of certain drugs (see Appendix 5). Patients will be monitored closely for drug interactions or adverse reactions to concomitant medications. Investigators are cautioned to adjust concomitant medication dosages appropriately.

| Compound | effect of treatment on prostate cancer cells [1] | efficacy [2] | sensitivity of androgen-insensitive PC-3 and DU 145 vs androgen-sensitive LNCaP [1] | difference in sensitivity between mismatch repair-proficient and -deficient cell lines [3] | levels of platinum-DNA adducts compared to cisplatin [4] | effect on radiation response (human lung cancer cells) | inhibition of CYP enzymes [5] |
| --- | --- | --- | --- | --- | --- | --- | --- |
| N.NC1CCCCC1.[Cl-].[Cl-].[Pt+2] [JM118, reference compound] | tumor cell kill |  |  |  |  |  |  |
| N.N.[Cl][Pt][Cl] [cisplatin] |  | not effective |  |  |  |  |  |
| CC(=O)[O][Pt]([NH2])([Cl])([Cl])([NH]C1CCCCC1)[O]C(C)=O [satraplatin, bis(acetato)ammine dichloro(cyclohexylamine)platinum (IV)] | tumor cell kill |  | more sensitive | no difference in sensitivity | lower levels of platinum-DNA adducts | can potentiate the effects of radiation | strong inhibitor |
